Data as given in patent US5677322A, “Maillard reaction inhibitor” (Otsuka Pharmaceutical Co., Ltd., priority 1993, dated 1997).

Test system: Lysozyme
Test: Inhibition of Maillard reaction: suppression of lysozyme dimer formation (lysozyme + fructose, SDS-PAGE)
Assay type: biochemical
Settings: inhibition ratio of test compound to aminoguanidine (positive control); lysozyme 10 mg/ml, fructose 100 mM, 0.2M sodium phosphate pH 7.4, 37° C., 3 days; dimer amount by SDS-PAGE
Procedure: Lysozyme and fructose were dissolved in a buffer solution of 0.2M sodium phosphate (pH 7.4) to respectively give concentrations of 10 mg/ml and 100 mM. After incubating at 37° C. for 3 days, a definite amount of the mixture was taken out and electrophoresed with the use of SDS-PAGE. After the completion of the electrophoresis, the gel was stained with 0.2% Coomassie Brilliant Blue R-250 and the amount of the dimer thus formed was determined.
Each of the test compounds was added before the initiation of the incubation and the effect of suppressing the formation of the dimer was examined at various concentrations, whereby the IC50 value was obtained. As a positive control, aminoguanidine, which is a known glycation inhibitor, was employed and the inhibition ratio of the test compound to aminoguanidine (IC50 of aminoguanidine/IC50 of test compound) was calculated.

IC50 of aminoguanidine/IC50 of test compound | Compound
4.5 | CC(C)=NN=C1NC(=O)C(Cc2c[nH]c3ccc(O)cc23)N1 (centres unmarked) [Test compound 41, 5-(5-Hydroxy-3-indolylmethyl)-2-isopropylidenehydrazonoimidazolidin-4-one]
3.5 | 2-Isopropylidenehydrazono-5-[N-(2-methyl-5-methoxycarbonylphenyl)carbamoylmethyl]thiazolidin-4-one [Test compound 84]
1.3 | CC(C)=NN=C1NC(=O)C(CC(=O)NC(C)c2ccccc2)N1 (centres unmarked) [Test compound 73, 2-Isopropylidenehydrazono-5-[N-(1-phenylethyl)carbamoylmethyl]imidazolidin-4-one]
6.8 | CC(C)=NN=C1NC(=O)C(CC(=O)N(C)c2ccccc2)S1 (centres unmarked) [Test compound 65, 2-Isopropylidenehydrazono-5-(N-methyl-N-phenylcarbamoylmethyl)thiazolidin-4-one]
2.6 | CC(C)=NN=C1NC(=O)C(Cc2c[nH]c3ccccc23)N1 (centres unmarked) [Test compound 40, 5-(3-Indolylmethyl)-2-isopropylidenehydrazonoimidazolidin-4-one]
6.4 | CC(C)=NN=C1NC(=O)C(CC(=O)Nc2c(C)cccc2C)S1 (centres unmarked) [Test compound 112, 5-[N-(2,6-dimethylphenyl)carbamoylmethyl]-2-isopropylidenehydrazonothiazolidin-4-one]
3.1 | CC(C)=NN=C1NC(=O)C(CCC(=O)Nc2ccccc2)N1 (centres unmarked) [Test compound 80, 2-Isopropylidenehydrazono-5-[2-(N-phenylcarbamoyl)ethyl]imidazolidin-4-one]
2.2 | O=C1NC(=NN=C2CCCC2)NC1Cc1ccc(OCc2ccccc2)cc1 (centres unmarked) [Test compound 77, 2-Cyclopentylidenehydrazono-5-(4-benzyloxybenzyl)imidazolidin-4-one]
5.7 | CC(C)=NN=C1NC(=O)C(CC(=O)Nc2ccccc2)N1 (centres unmarked) [Test compound 46, 2-Isopropylidenehydrazono-5-(N-phenylcarbamoylmethyl)imidazolidin-4-one]
4.8 | CC(C)=NN=C1NC(=O)C(Cc2ccc(O)cc2)N1 (centres unmarked) [Test compound 4, 5-(4-Hydroxybenzyl)-2-isopropylidenehydrazonoimidazolidin-4-one]

Second part, the compound before the results:

Compound | IC50 of aminoguanidine/IC50 of test compound
CC(C)=NN=C1NC(=O)C(Cc2ccc(OCc3cccs3)cc2)N1 (centres unmarked) [Test compound 36, 2-Isopropylidenehydrazono-5-[4-(2-thienylmethoxy)benzyl]imidazolidin-4-one] | 3.5
5-(N-ethoxycarbonylmethylcarbamoylmethyl)-2-isopropylidenehydrazonothiazolidin-4-one [Test compound 19] | 2.5
5-[N-(5-carboxy-2-methylphenyl)carbamoylmethyl]-2-isopropylidenehydrazonothiazolidin-4-one [Test compound 91] | 1.6
2-Isopropylidenehydrazino-4-(3-pyridyl)thiazole [Test compound 89] | 53
CC(C)=NN=C1NC(=O)C(CC(=O)Nc2ccc(F)cc2C(=O)O)S1 (centres unmarked) [Test compound 117, 5-[N-(2-carboxy-4-fluorophenyl)carbamoylmethyl]-2-isopropylidenehydrazonothiazolidin-4-one] | 7.0
CC(C)=NN=C1NC(=O)C(Cc2ccc([N+](=O)[O-])cc2)N1 (centres unmarked) [Test compound 33, 2-Isopropylidenehydrazono-5-(4-nitrobenzyl)imidazolidin-4-one] | 2.4
COC(=O)CC1NC(=NN=C(C)C)NC1=O (centres unmarked) [Test compound 43, 2-Isopropylidenehydrazono-5-methoxycarbonylmethylimidazolidin-4-one] | 5.4
